Laboratory results published in ChEMBL document CHEMBL1126454, “Syntheses of new TXA2/PGH2-receptor antagonists and their biological properties” (Bioorg Med Chem Lett, 1992).

Target: T1, Thromboxane A2 receptor (Homo sapiens) (UniProt P21731)
T1 sequence (whole entry): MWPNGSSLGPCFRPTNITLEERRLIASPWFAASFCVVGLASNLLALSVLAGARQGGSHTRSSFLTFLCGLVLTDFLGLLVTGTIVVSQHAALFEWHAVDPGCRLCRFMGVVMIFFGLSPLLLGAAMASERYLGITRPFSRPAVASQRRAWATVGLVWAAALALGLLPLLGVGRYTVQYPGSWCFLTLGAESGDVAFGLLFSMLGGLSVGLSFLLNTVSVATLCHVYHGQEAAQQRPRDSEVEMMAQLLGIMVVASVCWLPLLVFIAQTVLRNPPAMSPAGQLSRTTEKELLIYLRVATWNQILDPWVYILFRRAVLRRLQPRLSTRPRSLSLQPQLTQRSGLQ
Test: Competition factor for Thromboxane A2 (TXA2) / Prostaglandin H2 (PGH2)-receptor was determined by CF=(ID50-test)/(ID50-standard); partial agonist
Type: functional

Row | CF | Compound
1 | 2 | O=C(O)CCC/C=C/C[C@H]1[C@H](/C=C/[C@@H](O)COc2ccc(F)cc2)C2CC1(c1ccc(F)cc1)CO2 (some centres not stated)
2 | 6 | N#Cc1ccc(COC[C@@H]2C3CC(c4ccc(F)cc4)(CO3)[C@H]2C/C=C/CCCC(=O)O)cc1 (some centres not stated)
3 | 20 | CCC#CC[C@H](C)[C@H](O)/C=C/[C@@H]1C2CC(c3ccc(-c4ccccc4)cc3)(CO2)[C@H]1C/C=C/CCCC(=O)O (some centres not stated)
4 | 12 | CCC#CC[C@H](C)[C@H](O)C#C[C@@H]1C2CC(c3ccc(-c4ccccc4)cc3)(CO2)[C@H]1C/C=C/CCCC(=O)O (some centres not stated)

Target: T1, Thromboxane A2 receptor (Homo sapiens)
Test: Competition factor for Thromboxane A2 (TXA2) / Prostaglandin H2 (PGH2)-receptor was determined by CF=(ID50-test)/(ID50-standard); not parallel

Row | CF | Compound
5 | 0.1 | O=C(O)CC/C=C\C[C@H]1[C@H](CNS(=O)(=O)c2ccc(Cl)cc2)C2CC1(c1ccc(-c3ccccc3)cc1)CO2 (some centres not stated)
6 | 6 | O=C(O)CCCCC[C@H]1[C@H](CNS(=O)(=O)c2ccc(Cl)c(Cl)c2)C2CC1(c1ccc(-c3ccccc3)cc1)CO2 (some centres not stated)
7 | 4 | Cc1ccc(S(=O)(=O)NC[C@@H]2C3CC(c4ccc(-c5ccccc5)cc4)(CO3)[C@H]2CC=CCCCC(=O)O)cc1 (some centres not stated)
8 | 4.2 | O=C(O)CCC/C=C\C[C@H]1[C@H](CNS(=O)(=O)c2ccc(Cl)c(Cl)c2)C2CC1(c1ccc(-c3ccccc3)cc1)CO2 (some centres not stated)
9 | 0.4 | O=C(O)CCC/C=C\C[C@H]1[C@H](CNS(=O)(=O)c2ccc(Cl)cc2)C2CC1(c1ccc(-c3ccccc3)cc1)CO2 (some centres not stated)
10 | 0.3 | O=C(O)CCCCC[C@H]1[C@H](CNS(=O)(=O)c2ccc(Cl)cc2)C2CC1(c1ccc(-c3ccccc3)cc1)CO2 (some centres not stated)

Target: T1, Thromboxane A2 receptor (Homo sapiens)
Test: Competition factor for Thromboxane A2 (TXA2) / Prostaglandin H2 (PGH2)-receptor was determined by CF=(ID50-test)/(ID50-standard); agonist
Type: functional

Row | CF | Compound
11 | 320 | CCCCC[C@H](O)/C=C/[C@H]1C2CC(C)(CO2)[C@@H]1C/C=C/CCCC(=O)O (some centres not stated)
12 | 36 | CCCCC[C@H](O)/C=C/[C@H]1C2CC(CO2)[C@@H]1CC=CCCCC(=O)O (some centres not stated)
13 | 750 | O=C(O)CCC/C=C/C[C@@H]1[C@@H](COCc2ccccc2)C2CC1(CCc1ccccc1)CO2 (some centres not stated)

Target: T1, Thromboxane A2 receptor (Homo sapiens)
Test: Competition factor for Thromboxane A2 (TXA2) / Prostaglandin H2 (PGH2)-receptor was determined by CF=(ID50-test)/(ID50-standard)

Row | CF | Compound
14 | 30 | O=C(O)CCC/C=C/C[C@@H]1[C@@H](COCc2ccccc2)C2CC1(C#Cc1ccccc1)CO2 (stereo in doubt; 8a)
15 | 300 | O=C(O)CCC/C=C/C[C@@H]1[C@@H](COCc2ccccc2)C2CC1(c1ccccc1)CO2 (some centres not stated)
16 | 2 | O=C(O)CCC/C=C/C[C@H]1[C@H](NS(=O)(=O)c2ccc(F)cc2)C2CC1(c1ccc(-c3ccccc3)cc1)CO2 (some centres not stated)
17 | 30 | O=C(O)CCC/C=C/C[C@H]1[C@H](NS(=O)(=O)c2ccc(F)cc2)C2CC1(c1ccc(O)cc1)CO2 (some centres not stated)
18 | 375 | O=C(O)CCC/C=C/C[C@@H]1[C@@H](/C=C/[C@@H](O)COc2ccc(F)cc2)C2CC1(c1ccc(F)cc1)CO2 (some centres not stated)
19 | 5 | O=C(O)CCCCC[C@H]1[C@H](CNS(=O)(=O)c2ccc(Cl)c(Cl)c2)C2CC1(c1ccc(-c3ccccc3)cc1)CO2 (some centres not stated)
20 | 90 | CCCC#CC12COC(C1)[C@H](COCc1ccccc1)[C@H]2C/C=C/CCCC(=O)O (some centres not stated)
21 | 60 | O=C(O)CCC/C=C/C[C@H]1[C@H](COCc2ccccc2)C2CC1(c1ccccc1)CO2 (some centres not stated)
22 | 30 | O=C(O)CCC/C=C/C[C@@H]1[C@@H](COCc2ccccc2)C2CC1(C#Cc1ccccc1)CO2 (stereo in doubt)
23 | 2 | Cc1ccc(S(=O)(=O)N[C@@H]2C3CC(c4ccc(-c5ccccc5)cc4)(CO3)[C@H]2C/C=C/CCCC(=O)O)cc1 (some centres not stated)
24 | 120 | O=C(O)CCC/C=C/C[C@H]1[C@H](NS(=O)(=O)c2ccc(F)cc2)C2CC1(c1ccc(F)cc1)CO2 (some centres not stated)
25 | 0.05 | O=C(O)CC/C=C\C[C@H]1[C@H](CNS(=O)(=O)c2ccc(F)cc2)C2CC1(c1ccc(-c3ccccc3)cc1)CO2 (some centres not stated)
26 | 300 | O=C(O)CCC/C=C/C[C@@H]1[C@@H](COCc2ccccc2)C2CC1(Cc1ccccc1)CO2 (some centres not stated)
27 | 25 | CCCCC[C@H](O)/C=C/[C@@H]1C2CC(c3ccc(F)cc3)(CO2)[C@H]1C/C=C/CCCC(=O)O (some centres not stated)
28 | 1.4 | O=C(O)CCCCCC[C@H]1[C@H](CNS(=O)(=O)c2ccc(Cl)cc2)C2CC1(c1ccc(-c3ccccc3)cc1)CO2 (some centres not stated)
29 | 4 | CCC#CC[C@H](C)[C@H](O)C#C[C@@H]1C2CC(c3ccc(F)cc3)(CO2)[C@H]1C/C=C/CCCC(=O)O (some centres not stated)
30 | 800 | O=C(O)CCC/C=C/C[C@@H]1[C@@H](COCc2ccccc2)C2CC1(Cc1ccc(-c3ccccc3)cc1)CO2 (some centres not stated)
31 | 250 | CCCCC[C@H](O)/C=C/[C@H]1C2CC(Cc3ccccc3)(CO2)[C@@H]1C/C=C/CCCC(=O)O (some centres not stated)
32 | 12 | O=C(O)CCC/C=C/C[C@H]1[C@H](COCc2ccccc2)C2CC1(C#Cc1ccccc1)CO2 (some centres not stated)

Row | CF | Compound
33 | 12 | O=C(O)CCCCCC[C@H]1[C@H](CNS(=O)(=O)c2ccc(Cl)c(Cl)c2)C2CC1(c1ccc(-c3ccccc3)cc1)CO2 (some centres not stated)
34 | 120 | Cc1ccc(S(=O)(=O)N[C@@H]2C3CC(c4cccc(F)c4)(CO3)[C@H]2C/C=C/CCCC(=O)O)cc1 (some centres not stated)
35 | 0.1 | O=C(O)CCCCC[C@H]1[C@H](CNS(=O)(=O)c2ccc(F)cc2)C2CC1(c1ccc(-c3ccccc3)cc1)CO2 (some centres not stated)
36 | 250 | O=C(O)CCC/C=C/C[C@H]1[C@H](NS(=O)(=O)c2ccc(F)cc2)C2CC1(c1cccc(F)c1)CO2 (some centres not stated)
37 | 0.05 | Cc1ccc(S(=O)(=O)NC[C@@H]2C3CC(c4ccc(-c5ccccc5)cc4)(CO3)[C@H]2C/C=C\CCC(=O)O)cc1 (some centres not stated)
38 | 900 | N#Cc1ccc(COC[C@H]2C3CC(c4ccc(F)cc4)(CO3)[C@@H]2C/C=C/CCCC(=O)O)cc1 (some centres not stated)
39 | 170 | Cc1ccc(S(=O)(=O)N[C@@H]2C3CC(c4ccc(F)cc4)(CO3)[C@H]2C/C=C/CCCC(=O)O)cc1 (some centres not stated)
40 | 60 | O=C(O)CCC/C=C/C[C@H]1[C@H](COCc2ccccc2)C2CC1(c1ccc(F)cc1)CO2 (some centres not stated)
41 | 520 | Cc1ccc(S(=O)(=O)N[C@@H]2C3CC(c4ccc(O)cc4)(CO3)[C@H]2C/C=C/CCCC(=O)O)cc1 (some centres not stated)
42 | 125 | O=C(O)CCC/C=C/C[C@@H]1[C@@H](COCc2ccccc2)C2CC1(c1ccc(F)cc1)CO2 (some centres not stated)
43 | 16 | O=C(O)CCC/C=C/C[C@H]1[C@H](/C=N/Oc2ccc(F)cc2)C2CC1(c1ccc(-c3ccccc3)cc1)CO2 (some centres not stated)
44 | 16 | O=C(O)CCC/C=C/C[C@H]1[C@H](/C=N/Oc2ccc(F)cc2)C2CC1(c1ccc(F)cc1)CO2 (some centres not stated)
45 | > 1000 | O=C(O)CCC/C=C/C[C@H]1C2COC(C2)[C@@H]1COCc1ccccc1 (some centres not stated)
46 | 26 | CCC#CC[C@H](C)[C@H](O)/C=C/[C@@H]1C2CC(c3ccc(F)cc3)(CO2)[C@H]1C/C=C/CCCC(=O)O (some centres not stated)
47 | 650 | CCCCC[C@H](O)/C=C/[C@H]1C2CC(c3ccc(F)cc3)(CO2)[C@@H]1C/C=C/CCCC(=O)O (some centres not stated)
48 | > 1000 | CC12COC(C1)[C@H](COCc1ccccc1)[C@H]2C/C=C/CCCC(=O)O (some centres not stated)
49 | 10 | O=C(O)CCC/C=C/C[C@H]1[C@H](/C=N/Oc2ccc(F)cc2)C2CC1(c1cccc(F)c1)CO2 (some centres not stated)
50 | 0.1 | Cc1ccc(S(=O)(=O)NC[C@@H]2C3CC(c4ccc(-c5ccccc5)cc4)(CO3)[C@H]2CCCCCC(=O)O)cc1 (some centres not stated)
51 | 420 | CCCCC[C@H](O)/C=C/[C@H]1C2CC(CCc3ccccc3)(CO2)[C@@H]1C/C=C/CCCC(=O)O (some centres not stated)

Target: T1, Thromboxane A2 receptor (Homo sapiens)
Test: Competition factor for Thromboxane A2 (TXA2) / Prostaglandin H2 (PGH2)-receptor was determined by CF=(ID50-test)/(ID50-standard); antagonist
Type: functional

Row | CF | Compound
52 | 300 | O=C(O)CCC/C=C/C[C@@H]1[C@@H](COCc2ccccc2)C2CC1(c1ccccc1)CO2 (some centres not stated)
